US9863934B2, “Screening methods for cognitive enhancers” (Dart Neuroscience (Cayman) Ltd., priority 2002, dated 2018)
“Also recorded” adds a separate entry of the source.

Legend:
normal mice = assay: memory formation in normal mice after weak or strong training (% Freezing, FIG. 1); type: in vivo
Text: FIG. 1 is a bar graph showing the results of drug-induced (partial) enhancement of memory in normal mice by rolipram, a prototypical phosphodiesterase (PDE) inhibitor. Five-day retention after weak training (2×) is lower than strong training (5×). Only memory after weak training is enhanced by bilateral hippocampal injections (1 :l) of rolipram immediately after training. Rolipram reduced the number of training sessions required to produce memory. % Freezing=% Observation time mice spent frozen/motionless.
These Active Hits were evaluated in vivo rodent models of memory formation. To do so efficiently, a new behavioral training protocol was validated, which logically was affected by upstream modulation of the CREB pathway. During initial stages of acquisition, repeated training trials lead to increased cAMP levels. At some point, cAMP levels pass a threshold, and activated PKA (catalytic subunit) is translocated to the nucleus, where it phosphorylates CREB directly or it yields a permissive state for the phosphorylation of CREB by a cofactor. In this context, phosphodiesterase (PDE) inhibitors act to increase cAMP levels beyond the threshold with fewer training trials, thereby producing more long-lasting memory with weaker training.

human CREB RNA = assay: human CREB bDNA assay; type: cell-based
Text: CREB 1 and CREB 3 oligos have identical sequence homology with both mouse and human. CREB 17 has a single base mismatch.

[1] = system: CREB mRNA in Neuro2a cells; assay: bDNA assay of CREB mRNA after transfection of CREB LNA antisense oligos (FIG. 3); type: cell-based, Mus musculus; settings: higher concentration (0.5 :M)
Description: Detection of CREB mRNA with the bDNA Assay. Mus musculus Neuro2a cells were obtained from American Type Culture Collection (ATCC, Cat. No. CCL-131; Manassas, Va.). Cells were plated in Modified Eagle's Minimum Essential Media (Minimum essential medium (Eagle) with 2 mM L-glutamine and Earle's BSS adjusted to contain 1.5 g/L sodium bicarbonate, 0.1 mM non-essential amino acids, and 1.0 mM sodium pyruvate, 90%; fetal bovine serum, […]) in a 96-microwell format at 2×10^4 cells per well. Cells were maintained at 37 C. and 5% CO2 overnight before transfecting with CREB Locked Nucleic Acid (LNA) oligonucleotides.
Cells were transfected using Lipofectamine 2000 (hivitrogen, Carlsbad, Calif.) with modifications to the manufacturer's protocol. […]
The direct quantitation of CREB messenger RNA (mRNA) following transfection of antisense oligos, was detected using the QuantiGene Expression Kit according to the manufacturer's protocol (Bayer Corporation; Tarrytown, N.Y.). […] The luminescence of each well was measured in a Wallac Victor2 V (Perkin Elmer) plate luminometer at 45 C. […]

Compound	number of training sessions required to produce memory (normal mice)	memory (five-day retention, % Freezing) after weak training (normal mice; weak training (2×), not strong training (5×), bilateral hippocampal injections (1 :l) immediately after training)	knocking down human CREB RNA levels (human CREB RNA)	effect on endogenous CREB RNA levels [1]
COc1ccc(C2CNC(=O)C2)cc1OC1CCCC1 (stereo not drawn) [rolipram]	reduced	effect was established as predicted; also recorded: enhanced	–	–
CCTCCgCCgCgTCACTCA (LNA modifications, as printed in the source, key not given here) [CREB1, CREB Locked Nucleic Acid (LNA) antisense oligonucleotide]	–	–	factional in knocking down human CREB RNA levels	–
TggCACTgTTACAgTggT (LNA modifications, as printed in the source, key not given here) [CREB17, CREB LNA antisense oligonucleotide; single base mismatch to human]	–	–	factional in knocking down human CREB RNA levels	–
TggTCATTTAgTTACCggTg (as printed in the source, key not given here) [CREB3]	–	–	factional in knocking down human CREB RNA levels	reduces endogenous CREB RNA levels
